Results as given in US8987249B2, “Substituted 2-Aza-bicyclo[2.2.1]heptane-3-carboxylic acid (benzyl-cyano-methyl)-amides inhibitors of Cathepsin C” (Boehringer Ingelheim International GmbH, priority 2013, dated 2015).

Columns and labels:
[1] = target: recombinant human DPPI (Cathepsin C) (Homo sapiens (Human), UniProt P53634); test: Inhibition of human DPPI (Cathepsin C); format: biochemical; conditions: substrate Gly-Arg-AMC
Summary of the method: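 Recombinant human DPPI in MES buffer pH 6.0 (5 mM DTT, 0.1% BSA); fluorogenic substrate at 50 μM final, 30 min at room temperature, stopped with 1 μM Gly-Phe-DMK. Background-subtracted fluorescence expressed as percent of vehicle control; IC50 derived.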

[2] = target: recombinant human Cathepsin K (Homo sapiens (Human), UniProt P43235); test: Inhibition of human Cathepsin K; format: biochemical; conditions: substrate Z-Gly-Pro-Arg-AMC
Summary of the method: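 Proenzyme activated in pH 3.5 sodium acetate for 30 min at room temperature. Enzyme (2 ng/μL final) preincubated 10 min with compound (0.1 nM–100 μM, 1% DMSO) in pH 5.5 acetate/EDTA/L-cysteine buffer, then reacted 60 min at room temperature with Z-Gly-Pro-Arg-AMC. Stopped with 1 μM E64; fluorescence Ex 360/Em 460 nm; IC50 from background-subtracted percent of vehicle control.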

[3] = Determination of metabolic stability with human liver microsomes; conditions: pooled human liver microsomes; for half-life at 1 μM: human, pH 7.6; for In vitro stability in human liver microsome incubations t½: 1 μM test compound, 37° C., NADPH

recombinant human DPPI (Cathepsin C), sequence (P53634 231-394): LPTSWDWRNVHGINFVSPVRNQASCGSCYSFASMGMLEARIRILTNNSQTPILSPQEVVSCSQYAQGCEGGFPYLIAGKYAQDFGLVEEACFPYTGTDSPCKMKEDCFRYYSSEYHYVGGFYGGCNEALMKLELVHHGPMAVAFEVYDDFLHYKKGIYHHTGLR
recombinant human DPPI (Cathepsin C), sequence (P53634 395-463): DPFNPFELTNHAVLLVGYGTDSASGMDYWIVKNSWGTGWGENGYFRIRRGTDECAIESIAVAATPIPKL
recombinant human DPPI (Cathepsin C), sequence (P53634 25-134): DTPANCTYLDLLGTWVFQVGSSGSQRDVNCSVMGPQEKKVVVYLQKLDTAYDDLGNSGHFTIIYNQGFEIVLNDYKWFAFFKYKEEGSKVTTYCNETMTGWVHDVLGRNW
recombinant human Cathepsin K, sequence (P43235 115-329): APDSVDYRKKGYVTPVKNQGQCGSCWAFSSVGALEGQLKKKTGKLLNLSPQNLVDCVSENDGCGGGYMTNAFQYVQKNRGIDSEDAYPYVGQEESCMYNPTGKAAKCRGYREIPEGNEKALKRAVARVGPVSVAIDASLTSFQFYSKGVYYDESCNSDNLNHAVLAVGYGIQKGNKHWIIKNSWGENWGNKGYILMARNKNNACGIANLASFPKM

Compound | IC50 [1] [nM] | IC50 [2] [nM] | half-life at 1 μM [3] [h] | In vitro stability in human liver microsome incubations t½ [3] [h]
CS(=O)(=O)c1cc(-c2ccc(C[C@@H](C#N)NC(=O)[C@H]3N[C@@H]4CC[C@H]3C4)c(F)c2)ccc1F [Example 152] | 2.1 | 6100 | > 2.17 | –
N#C[C@H](Cc1ccc(-c2ccc3c(c2)COC3=O)cc1F)NC(=O)[C@H]1N[C@@H]2CC[C@H]1C2 [Example 3, (1S,2S,4R)—N-[(1S)-1-cyano-2-[2-fluoro-4-(1-oxo-3H-isobenzofuran-5-yl)phenyl]ethyl]-3-azabicyclo[2.2.1]heptane-2-carboxamide] | 0.7 | 2100 | 0.95 | –
N#C[C@H](Cc1ccc(-n2cc(-c3ccc4[nH]ccc4c3)nn2)cc1F)NC(=O)[C@H]1N[C@@H]2CC[C@H]1C2 [Example 5, (1S,2S,4R)—N-[(1S)-1-cyano-2-[2-fluoro-4-[4-(1H-indol-5-yl)triazol-1-yl]phenyl]ethyl]-3-azabicyclo[2.2.1]heptane-2-carboxamide] | 4 | 2600 | 1.53 | –
CN(C)C1CCCN(c2ccc(C[C@@H](C#N)NC(=O)[C@H]3N[C@@H]4CC[C@H]3C4)c(F)c2)C1 (stereo partly drawn) [Example 344, (1S,2S,4R)—N-[(1S)-1-cyano-2-[4-[3-(dimethylamino)-1-piperidyl]-2-fluoro-phenyl]ethyl]-3-azabicyclo[2.2.1]heptane-2-carboxamide] | 10 | 6200 | 1.83 | –
N#C[C@H](Cc1ccc(-c2cc(C(=O)N3CCn4nccc4C3)co2)cc1F)NC(=O)[C@H]1N[C@@H]2CC[C@H]1C2 [Example 240] | 6.1 | 9400 | 1.83 | –
N#C[C@H](Cc1ccc(-c2cnn(C[C@H]3CCCO3)c2)cc1F)NC(=O)[C@H]1N[C@@H]2CC[C@H]1C2 [Example 260] | 3.5 | 3900 | > 2.17 | –
N#C[C@H](Cc1ccc(N2CCN3CCC[C@H]3C2)cc1F)NC(=O)[C@H]1N[C@@H]2CC[C@H]1C2 [Example 270] | 6.3 | 6100 | > 2.17 | –
N#C[C@H](Cc1ccc(-c2ccc(C(=O)N3CCOCC3)o2)cc1F)NC(=O)[C@H]1N[C@@H]2CC[C@H]1C2 [Example 288] | 2.3 | 2200 | > 2.17 | –
N#C[C@H](Cc1ccc(-c2cnn(C[C@@H]3CCOC3)c2)cc1F)NC(=O)[C@H]1N[C@@H]2CC[C@H]1C2 [Example 262] | 6.4 | 2800 | > 2 | –
N#CC(Cc1ccc2c(cnc3cc(F)ccc32)c1)NC(=O)[C@H]1N[C@@H]2CC[C@H]1C2 (stereo partly drawn) [Example 315, (1S,2S,4R)—N-[1-cyano-2-(3-fluorophenanthridin-8-yl)ethyl]-3-azabicyclo[2.2.1]heptane-2-carboxamide] | 13.5 | > 30000 | 1.53 | –
CCOCc1cn(-c2ccc(C[C@@H](C#N)NC(=O)[C@H]3N[C@@H]4CC[C@H]3C4)c(F)c2)nn1 [Example 105] | 25 | 5200 | > 2.17 | –
CS(=O)(=O)c1ccc(-c2ccc(C[C@@H](C#N)NC(=O)[C@H]3N[C@@H]4CC[C@H]3C4)c(F)c2F)cc1 [Example 176] | 6.6 | 13900 | > 2.17 | –
CS(=O)(=O)Nc1ccc(-c2ccc(CC(C#N)NC(=O)[C@H]3N[C@@H]4CC[C@H]3C4)c(F)c2)cc1 (stereo partly drawn) [Example 62] | 9.1 | 3900 | > 2.17 | –
CC1(C)OC(=O)c2ccc(-c3ccc(C[C@@H](C#N)NC(=O)[C@H]4N[C@@H]5CC[C@H]4C5)c(F)c3)cc21 [Example 156] | 0.6 | 7800 | 1.58 | –
CN1CCC(c2ccc(C[C@@H](C#N)NC(=O)[C@H]3N[C@@H]4CC[C@H]3C4)c(F)c2)CC1 [Example 117] | 39.6 | 2700 | > 2.17 | –
CS(=O)(=O)c1ccc(-c2ccc(C[C@@H](C#N)NC(=O)[C@H]3N[C@@H]4CC[C@H]3C4)c(F)c2)cc1 [Example 16] | 2.6 | 2100 | > 2.17 | –
N#CC(Cc1ccc(-c2ccc3c(c2)CNC3=O)cc1F)NC(=O)[C@H]1N[C@@H]2CC[C@H]1C2 (stereo partly drawn) [Example 41] | 5.3 | 4700 | > 2.17 | –
CN1CCN(C(=O)c2cccc(-c3ccc(C[C@@H](C#N)NC(=O)[C@H]4N[C@@H]5CC[C@H]4C5)c(F)c3)c2)CC1 [Example 245] | 5.9 | 1200 | > 2.17 | –
CS(=O)(=O)Nc1cccc(-c2ccc(C[C@@H](C#N)NC(=O)[C@H]3N[C@H]4C[C@@H]3[C@@H]3C[C@@H]34)c(F)c2)c1 [Example 139] | 11.7 | 4800 | > 2.17 | –
COc1ccc(-c2cn(-c3ccc(C[C@@H](C#N)NC(=O)[C@H]4N[C@@H]5CC[C@H]4C5)c(F)c3)nn2)cc1OC [Example 77] | 11.9 | 5300 | > 2.17 | –
CN1C(=O)Cc2ccc(-c3ccc(CC(C#N)NC(=O)[C@H]4N[C@@H]5CC[C@H]4C5)c(F)c3)cc21 (stereo partly drawn) [Example 15] | 2 | 3200 | – | 2.17

Compound | IC50 [1] [nM] | IC50 [2] [nM] | half-life at 1 μM [3] [h] | In vitro stability in human liver microsome incubations t½ [3] [h]
N#C[C@H](Cc1ccc(-c2cccc(S(=O)(=O)C3CC3)c2)cc1F)NC(=O)[C@H]1N[C@@H]2CC[C@H]1C2 [Example 153] | 3.8 | 4400 | 1.83 | –
N#C[C@H](Cc1ccc(-c2cnn(C[C@@H]3CCCO3)c2)cc1F)NC(=O)[C@H]1N[C@@H]2CC[C@H]1C2 [Example 261] | 4.2 | 3800 | > 2.17 | –
N#C[C@H](Cc1ccc(N2CC3CCN(C4CCOC4)C3C2)cc1F)NC(=O)[C@H]1N[C@@H]2CC[C@H]1C2 (stereo partly drawn) [Example 348] | 17.6 | 4300 | – | 2.17
N#C[C@H](Cc1ccc(N2CCN(CCO)CC2)cc1F)NC(=O)[C@H]1N[C@@H]2CC[C@H]1C2 [Example 190] | 10.9 | 3700 | > 2.17 | –
CN1CCCN(c2ccc(C[C@@H](C#N)NC(=O)[C@H]3N[C@@H]4CC[C@H]3C4)c(F)c2)CC1 [Example 247] | 8.4 | 4500 | > 2.17 | –
N#CC(Cc1ccc(-c2ccc(Cl)nn2)cc1F)NC(=O)[C@H]1N[C@@H]2CC[C@H]1C2 (stereo partly drawn) [Example 108] | 26.4 | 9400 | > 2.17 | –
CC(=O)N1CCN(C(=O)c2cc(-c3ccc(C[C@@H](C#N)NC(=O)[C@H]4N[C@@H]5CC[C@H]4C5)c(F)c3)cs2)CC1 [Example 231] | 2.2 | 2400 | > 2.17 | –
N#Cc1ccc(-c2ccc(CC(C#N)NC(=O)[C@H]3N[C@@H]4CC[C@H]3C4)c(F)c2)cc1F (stereo partly drawn) [Example 35] | 4.6 | 4400 | > 2.17 | –
N#Cc1ccc2[nH]c(=O)c3cc(CC(C#N)NC(=O)[C@H]4N[C@@H]5CC[C@H]4C5)ccc3c2c1 (stereo partly drawn) [Example 298] | 3.2 | 17600 | 1.75 | –
N#C[C@H](Cc1ccc(-c2ccc3c(c2)CNC3=O)cc1F)NC(=O)[C@H]1N[C@H]2C[C@@H]1[C@@H]1C[C@@H]12 [Example 147] | 6.2 | 9700 | > 2.17 | –
N#CC(Cc1ccc(-c2cnc(Cl)cn2)cc1F)NC(=O)[C@H]1N[C@@H]2CC[C@H]1C2 (stereo partly drawn) [Example 102] | 24.8 | 4300 | > 2.17 | –
N#C[C@H](Cc1ccc(-c2ccc3c(c2)NC(=O)C3)cc1F)NC(=O)[C@H]1N[C@@H]2CC[C@H]1C2 [Example 29] | 4.2 | 1400 | > 2.17 | –
CN1Cc2cc(-c3ccc(CC(C#N)NC(=O)[C@H]4N[C@@H]5CC[C@H]4C5)c(F)c3)ccc2C1=O (stereo partly drawn) [Example 76] | 11.7 | 5300 | 1.4 | –
CS(=O)(=O)N1CCN(c2ccc(C[C@@H](C#N)NC(=O)[C@H]3N[C@@H]4CC[C@H]3C4)c(F)c2)CC1 [Example 91] | 17 | 2500 | > 2.17 | –
CS(=O)(=O)c1cc(-c2ccc(CC(C#N)NC(=O)[C@H]3N[C@@H]4CC[C@H]3C4)c(F)c2)ccc1C#N (stereo partly drawn) [Example 19] | 2.8 | 5400 | > 2.17 | –
CN1CCC(N2C(=O)Cc3ccc(-c4ccc(C[C@@H](C#N)NC(=O)[C@H]5N[C@@H]6CC[C@H]5C6)c(F)c4)cc32)CC1 [Example 346] | 1 | 4000 | > 2.17 | –
N#Cc1cc(F)c2[nH]c(=O)c3cc(C[C@@H](C#N)NC(=O)[C@H]4N[C@@H]5CC[C@H]4C5)c(F)cc3c2c1 [Example 325] | 1.3 | 2300 | > 2.17 | –
CN1CCN(S(=O)(=O)c2ccc(-c3ccc(C[C@@H](C#N)NC(=O)[C@H]4N[C@@H]5CC[C@H]4C5)c(F)c3)cc2)CC1 [Example 155] | 0.8 | 1000 | 1.03 | –
N#Cc1ccc(-c2ccc(C[C@@H](C#N)NC(=O)[C@H]3N[C@H]4C[C@@H]3[C@@H]3C[C@@H]34)c(F)c2)s1 [Example 40] | 5.1 | 7800 | > 2.17 | –
CN1CCN(C(=O)c2coc(-c3ccc(C[C@@H](C#N)NC(=O)[C@H]4N[C@@H]5CC[C@H]4C5)c(F)c3)c2)CC1 [Example 241] | 6.8 | 2500 | 1.4 | –
